These results are taken from PMC11353420, “Anti-Inflammatory, Cytotoxic, and Genotoxic Effects of Soybean Oligopeptides Conjugated with Mannose” (Foods, 2024).

“And” between values parts separate entries of the source, which are not always exact repeats. Equal values may be shown once. Some results are limits rather than exact numbers.

The subject of one data set is Drosophila melanogaster. Kind of data set: Somatic mutation and recombination test (SMART, wing spot test). The note with it: 20 mM, positive control. In kind it is in vivo. On the set-up: key to Statistical diagnosis vs DI (negative control), Small Single (1–2 Cells) / Statistical diagnosis vs DI (negative control), Large Single (>2 Cells) / Statistical diagnosis vs DI (negative control), Twin / Statistical diagnosis vs DI (negative control), Total Spots: + = positive; − = negative; i = inconclusive. How it is done:
In brief, two strains of fruit flies, including mwh/mwh and ORR; flr^3/In(3LR) TM3, ri p^p sep l(3)89Aa bx^34e e Bd^S, were mated. […] After hatching, forty round wings were collected and analyzed for mutant spots (single, large, and twin spots). The statistical analysis for the wing spot test was performed as previously described. The Drosophila study was approved by the Institute of Nutrition—Mahidol University Institutional Animal Care and Use Committee (INMU-IACUC) (COA. No. INMU-IACUC 2023/01).

Data set [1] deals with human red blood cells (RBCs). Kind of data set: Hemolysis assay. It is filed as cell-based. The note with it: 0.05%, positive control. The source says:
As described by Karinchai et al., human peripheral blood mononuclear cells (PBMCs) and red blood cells (RBCs) were isolated from human blood samples [41]. Human blood samples of healthy subjects obtained from Maharaj Hospital, Chiang Mai, Thailand, were anonymized and kept in a heparinized tube by the laboratory. RBCs were collected and used to determined hemolysis induction by a hemolysis assay. Ficoll-Hypaque solution was used to isolate PBMCs, as described in the manufacturer’s instructions. A certificate of exemption by the Research Ethics Committee of the Faculty of Medicine, Chiang Mai University (No. EXEMPTION 8989/2022), was granted. Consent to participate was not applicable as all data were anonymized. All methods were carried out in accordance with relevant guidelines and regulations.
The hemolytic effect of the oligopeptide and its conjugated forms was determined by hemolysis assay. Briefly, the 5% RBCs suspension was mixed with various concentrations of the samples and further incubated at 37 °C for 3 h. The hemolysis induction by the compounds was measured as described previously. The hemolytic effect of each compound was interpreted using the following guidelines: 0–10% hemolysis is non-hemolysis, 10–25% hemolysis is slight hemolysis induction, and >25% hemolysis is high hemolysis induction.

Data set [2] has as its system Salmonella typhimurium strain TA100. Nature of the data set: Salmonella mutation assay (Ames test), TA100. The note with it: positive mutagen. In kind it is cell-based. How it is done: (§1) Overnight bacterial cultures were mixed with various doses of test compounds with (+S9) or without (−S9) and incubated at 37 °C for 20 min. The top agar was added and then poured onto a plate of minimal glucose agar. The plates were incubated at 37 °C for 48 h. The number of revertant colonies was counted and the mutagenic index (MI) was calculated. 2-aminoanthracene (2-AA) and 2-(2-furyl)-3-(5-nitro-2-furyl)-acrylamide (AF-2) were used as positive mutagens in the presence and absence of S9.

The test system of data set [3] is Salmonella typhimurium strain TA98. Kind of data set: Salmonella mutation assay (Ames test), TA98. It is filed as cell-based. The note with it: positive mutagen. The method, then: as §1
Background: The Ames test detects mutagens through reverse mutation in bacteria.

In the next data set the test system is TNF-α. Kind of data set: TNF-α secretion by ELISA in LPS-treated RAW 264.7. In kind it is cell-based, murine. The note with it: 400 µg/mL, LPS-stimulated cells. The method, then: (§2) RAW 264.7 macrophage cells were pretreated with various concentrations of the oligopeptide and its conjugated forms (100, 200, 400 µg/mL) for an hour and then incubated with LPS (1 µg/mL) for further 24 h at 37 °C in a 5% CO2 humidified atmosphere. Then, a sandwich Enzyme Link Immuno-Sorbent Assay was carried out in accordance with the manufacturer’s protocols (BioLegend ELISA MAXTM Deluxe Set, San Diego, CA, USA) to measure TNF-α or IL-6 protein levels in the condition medium.
For orientation: In an ELISA, binding on a coated surface is turned into a signal by an enzyme label.

The subject of another data set is IL-6. Kind of data set: IL-6 secretion by ELISA in LPS-treated RAW 264.7. It is filed as cell-based, murine. The note with it: 100, 200, 400 µg/mL, LPS 1 µg/mL 24 h. The method, then:
as §2

The next data set concerns 3T3-L1 Pre-adipocyte. Nature of the data set: SRB cytotoxicity assay, 3T3-L1 pre-adipocyte. It is filed as cell-based, murine. An excerpt:
(§3) HEK293 (Human embryonic kidney cell line), HepG2 (Human liver carcinoma cell line), LX-2 (Human hepatic stellate cell line), and 3T3-L1 (Murine preadipocyte cell line) cells were obtained from the American Type Culture Collection (ATCC), Bethesda, MD, USA.

In data set [4] the test system is RAW 264.7 murine macrophage cell line. Kind of data set: SRB cytotoxicity assay, RAW 264.7. How it is done:
The cells were maintained in a 5% CO2 humidified atmosphere (CO2 incubator, Thermo Scientific, Waltham, MA, USA) at 37 °C and sub-cultured every 3 days.
(§4) The cytotoxicity of the oligopeptide and its conjugated forms on HepG2, HEK293, LX-2, and RAW 264.7 cells, pre- and mature 3T3-L1 adipocytes, and hPBMCs was analyzed by a sulforhodamine (SRB) assay to obtain their non-toxic concentration for further experiments and as screening data for their in vitro safety. The cells were plated for 12 h in 96-well plates and then treated with the oligopeptide and its conjugated sugar at a concentration of 0–1000 µg/mL for 48 h. Dimethyl sulfoxide (DMSO) was used as a vehicle control (the untreated control). At the indicated time, the cells were then fixed and subjected to an SRB assay. The absorbance was measured at 510 nm by spectrophotometry (Gen5, BioTek, Winooski, VT, USA), and the cell viability was calculated as the ratio of the treatment versus untreated control. The data are represented as the mean ± standard deviation of three replicates and are expressed relative to the untreated control. The percentage of cell survival was calculated as follows:% cell survival = (Abs_extract/Abs_control) × 100

The subject of data set [5] is HepG2 (Human liver carcinoma cell line). Nature of the data set: SRB cytotoxicity assay, HepG2. It is filed as cell-based.
From the text: as §3

For a further data set, the system named is COX-2. Kind of data set: COX-2 protein level by immunoblotting in LPS-treated RAW 264.7. It is filed as cell-based, murine. The note with it: 100, 200, 400 µg/mL, LPS 1 µg/mL 24 h. How it is done: (§5) RAW 264.7 macrophage cells were pretreated with various concentrations of the oligopeptide and its conjugated forms (100, 200, 400 µg/mL) for an hour and then incubated with LPS (1 µg/mL) for a further 24 h (at 37 °C in a 5% CO2 humidified atmosphere). The cells were then collected to investigate the iNOS and COX-2 protein levels. Cell lysate was prepared to obtain the protein samples. The samples were subjected to 10% sodium dodecyl sulfate polyacrylamide gel electrophoresis (SDS-PAGE). The separated proteins were electrically transferred to a nitrocellulose membrane. The target proteins were probed with specific antibodies, including anti-COX-2 antibody (Cell signaling, Danvers, MA, USA), anti-iNOS antibody (Merck, Rahway, NJ, USA), and anti-β-actin antibody (Sigma, St. Louis, MO, USA). Protein detection was performed using a chemiluminescence reagent (Bio-Rad Laboratories, Watford, UK).
For orientation: A western blot detects proteins with antibodies after separation by electrophoresis.

Data set [6] relates to NO production in LPS-treated RAW 264.7 macrophages. Nature of the data set: LPS-induced nitric oxide (NO)/nitrite production, Griess reaction. In kind it is cell-based, murine. The note with it: 100, 200, 400 µg/mL pretreatment 1 h, LPS 1 µg/mL 24 h. How it is done: To screen the anti-inflammation ability of the compounds, the nitrite level in the cultured medium of the treated cells was determined by the Griess reaction. RAW 264.7 macrophage cells were pretreated with various concentrations of the oligopeptide and its conjugated forms (100, 200, 400 µg/mL) for an hour and then incubated with LPS (1 µg/mL) for further 24 h at 37 °C in a 5% CO2 humidified atmosphere. The culture supernatant was collected for the Griess reagent assay as previous described. The NO production was calculated by comparison with LPS-treated controls.

Data set [7] deals with HEK293 (Human embryonic kidney cell line). Kind of data set: SRB cytotoxicity assay, HEK293. In kind it is cell-based.
From the text: as §3

Another data set concerns 3T3-L1 Mature-adipocytes. Kind of data set: SRB cytotoxicity assay, 3T3-L1 mature adipocytes. In kind it is cell-based, murine. How it is done: The pre-adipocyte 3T3-L1 cell line was differentiated to become mature adipocytes by culturing the cells to 100% confluence in 10% calf serum DMEM (CS medium), as Day 0 in a 96 well-plate. After post-confluence, the cells were incubated with the induction medium as a differentiation initiation medium (DMEM […] 1 μM DEX, 0.5 mM IBMX, 167 nM insulin, and 10% FBS) for 3 days (Days 1–3). After that, cells were cultured in a differentiation medium as an adipogenic differentiation medium (differentiation media: DMEM containing 167 nM insulin and 10% FBS) for 3 days (Days 4–6). Finally, maturation was induced in an induced-lipid accumulation medium (maturation media: DMEM containing 167 nM insulin and 10% FBS) for 6 days (Days 7–12). The mature adipocytes were then used for toxicity testing.
as §4

Data set [8] deals with LX-2 (Human hepatic stellate cell line). Nature of the data set: SRB cytotoxicity assay, LX-2. In kind it is cell-based.
From the text: as §3

The subject of the next data set is iNOS. Nature of the data set: iNOS protein level by immunoblotting in LPS-treated RAW 264.7. The note with it: 100, 200, 400 µg/mL, LPS 1 µg/mL 24 h. In kind it is cell-based, murine. How it is done: as §5

With `CCOC(N)=O` [urethane], in the data set on Drosophila melanogaster, the “Statistical diagnosis vs DI (negative control), Large Single (>2 Cells)” value is reported as “+”; the “Statistical diagnosis vs DI (negative control), Small Single (1–2 Cells)” value is reported as “+”; the “Statistical diagnosis vs DI (negative control), Total Spots” value is given as “+”; the “Statistical diagnosis vs DI (negative control), Twin” value is listed as “+”. Further, the “total mutant spot, fold greater than the negative control” value in the data set on Drosophila melanogaster turned out to be 15 fold. Further, in the data set on Drosophila melanogaster (40 wings), the “Frequency of Mutant Spots per Individual (Number of Spots), Large Single (>2 Cells)” value is recorded as 3.40 (136); the “Frequency of Mutant Spots per Individual (Number of Spots), Small Single (1–2 Cells)” value is 6.10 (244); the “Frequency of Mutant Spots per Individual (Number of Spots), Total Spots” value was 10.18 and 10.18 (407); the “Frequency of Mutant Spots per Individual (Number of Spots), Twin” value is listed as 0.68 (27).

triton x-100: the “% Hemolysis (n = 5)” value in data set [1] stood at 100 ± 0.00%.

On to `NC(=O)C(=Cc1ccc([N+](=O)[O-])o1)c1ccco1` [AF-2, 2-(2-furyl)-3-(5-nitro-2-furyl)-acrylamide], for which the “His^+ Revertant Colonies per Plate” value in data set [2] (TA100, −S9, 0.01 µg per plate) was determined as 527.3 ± 15.0; in data set [3] (TA98, −S9, 0.1 µg per plate), 293.0 ± 10.3.

On to `O=C(CO)[C@H](O)[C@H](O)[C@H](O)CO` [AL, D-allulose], for which, in the data set on TNF-α, the “effect on TNF-α level” value is given as “significantly decreased”. The “effect on level of IL-6” value in the data set with IL-6 is given as “did not alter”. Moreover, the IC20 (in the data set with 3T3-L1 Pre-adipocyte; in data set [4]; in data set [5]; in data set [7]; in the data set with 3T3-L1 Mature-adipocytes; in [8]) was above 1000 µg/mL in each case. Besides, the IC50 – broadly, the concentration at which inhibition is half-maximal – is above 1000 µg/mL in the data set with 3T3-L1 Pre-adipocyte (3T3-L1 Pre-adipocyte, 48 h, SRB); above 1000 µg/mL in [4] (RAW 264.7, 48 h, SRB); above 1000 µg/mL in data set [5] (HepG2, 48 h, SRB); above 1000 µg/mL in data set [7] (HEK293, 48 h, SRB); above 1000 µg/mL with 3T3-L1 Mature-adipocytes (3T3-L1 Mature-adipocytes, 48 h, SRB); above 1000 µg/mL in data set [8] (LX-2, 48 h, SRB). Further, the “effect on COX-2 protein level” value in the data set on COX-2 is on record as “did not affect”. The “inhibition of LPS-induced NO production” value in data set [6] is “did not inhibit”. Also, the “effect on iNOS protein level” value with iNOS is reported as “did not affect”.

Take `Nc1ccc2cc3ccccc3cc2c1` [2-AA, 2-aminoanthracene]: the “His^+ Revertant Colonies per Plate” value in data set [2] (TA100, +S9, 0.5 µg per plate) was 599.7 ± 8.7; in data set [3] (TA98, +S9, 0.5 µg per plate), 325.8 ± 16.2.
